ChEMBL document CHEMBL1201862, “PubChem BioAssay data set” (2004)
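1) Cells in 96-well plates. 2) Compound, 48 h, 5 concentrations. 3) Linear interpolation between surrounding doses. 4) Unreached endpoint = highest concentration. GI50: concentration for 50% inhibition of growth.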 Calls of active or inactive are those of the source. Cut-off read from the data, not from the text of the source: active = GI50 up to about 1.1 µM and inactive = higher.

Key:
Assay in all cases: NCI tumour cell line growth inhibition, 48 h
M19-MEL = tested on: M19-MEL
LXFL 529 = tested on: LXFL 529
KM-20L2 = tested on: KM-20L2
XF498 = tested on: XF498
HOP-18 = tested on: HOP-18
DMS-114 = tested on: DMS-114
DMS-273 = tested on: DMS-273
DLD-1 = tested on: DLD-1
RXF 631 = tested on: RXF 631

SMILES | GI50 (M19-MEL) | GI50 (LXFL 529) | GI50 (KM-20L2) | GI50 (XF498) | GI50 (HOP-18) | GI50 (DMS-114) | GI50 (DMS-273) | GI50 (DLD-1) | GI50 (RXF 631)
C[n+]1c2n(c3nc(N)[nH]c(=O)c31)C1OC(C2)C(O)C1O (configuration not stated) | > 100 µM (inactive) | > 100 µM (inactive) | > 100 µM (inactive) | > 100 µM (inactive) | > 100 µM (inactive) | > 100 µM (inactive) | > 100 µM (inactive) | > 100 µM (inactive) | > 100 µM (inactive)
Cn1c2ccccc2c2cc(-c3ccccc3)c3c(c21)C(=O)c1ccccc1C3=O | 2.25 µM (inactive) | 14.3 µM (inactive) | – | 14.6 µM (inactive) | – | 12.5 µM (inactive) | 17 µM (inactive) | 13.3 µM (inactive) | 34 µM (inactive)
Cc1ccc(C(c2c(O)c3ccccc3n(-c3ccccc3)c2=O)c2c(O)c3ccccc3n(-c3ccccc3)c2=O)cc1 | > 100 µM (inactive) | > 100 µM (inactive) | > 100 µM (inactive) | > 100 µM (inactive) | > 100 µM (inactive) | > 100 µM (inactive) | > 100 µM (inactive) | > 100 µM (inactive) | –
CC1(C)OCN(c2ccc(S(N)(=O)=O)cc2)Cn2c1nc1ccccc12 | > 100 µM (inactive) | > 100 µM (inactive) | > 100 µM (inactive) | > 100 µM (inactive) | > 100 µM (inactive) | > 100 µM (inactive) | > 100 µM (inactive) | > 100 µM (inactive) | –
CN(C)c1ccc(C(=C(c2ccc(N(C)C)cc2)c2ccc(N(C)C)cc2)c2ccc(N(C)C)cc2)cc1 | 26.5 µM (inactive) | 12.3 µM (inactive) | 16.9 µM (inactive) | – | 7.01 µM (inactive) | 15.4 µM (inactive) | 15.8 µM (inactive) | 16.1 µM (inactive) | 13.6 µM (inactive)
O=C(O)Cc1cccc2c(=O)cc(-c3ccccc3)oc12 [MITOFLAXONE] | > 250 µM (inactive) | – | > 250 µM (inactive) | 33.7 µM (inactive) | 156 µM (inactive) | 227 µM (inactive) | > 250 µM (inactive) | > 250 µM (inactive) | –
Cc1ccc(S(=O)OC2C3CC4CC(C3)CC2C4)cc1 (configuration not stated) | > 100 µM (inactive) | > 100 µM (inactive) | > 100 µM (inactive) | > 100 µM (inactive) | > 100 µM (inactive) | > 100 µM (inactive) | > 100 µM (inactive) | > 100 µM (inactive) | –
NC(=O)NO [HYDROXYUREA] | 1420 µM (inactive) | 713 µM (inactive) | 436 µM (inactive) | 820 µM (inactive) | 933 µM (inactive) | – | 137 µM (inactive) | 1450 µM (inactive) | –
C=CC/C=C/Cc1csc(C(C)(C)C(O)C/C=C/C(=C)CCNC(=O)OC)n1 (configuration not stated) | 25.5 µM (inactive) | 21.2 µM (inactive) | 51.2 µM (inactive) | > 50 µM (inactive) | – | < 0.0132 µM (active) | 3.26 µM (inactive) | 83.4 µM (inactive) | –
Cc1cccc(C)c1NC(=O)/C(Cl)=C(/Cl)C(=O)O | 19.9 µM (inactive) | 8.11 µM (inactive) | 6.92 µM (inactive) | 15 µM (inactive) | 20.3 µM (inactive) | 21.3 µM (inactive) | 18.6 µM (inactive) | 7.28 µM (inactive) | –
Oc1ccc2c(O)cc(-c3ccccc3)nc2c1 | 19.5 µM (inactive) | 26.5 µM (inactive) | 19.9 µM (inactive) | 25.1 µM (inactive) | 26.2 µM (inactive) | 18.7 µM (inactive) | 28.1 µM (inactive) | 18.3 µM (inactive) | 30.5 µM (inactive)
Cc1cc2c(c3oc(C4(C)OC4C4OC4C)cc(=O)c13)C(=O)c1c(O)c(C3CC(C)(N(C)C)C(O)C(C)O3)cc(C3CC(N(C)C)C(O)C(C)O3)c1C2=O (configuration not stated) | – | 0.000227 µM (active) | – | – | 0.00069 µM (active) | – | 0.0025 µM (active) | 0.0025 µM (active) | 0.000161 µM (active)
CCOP(=O)(OCC)C(C(=O)OC)C(=O)C(=O)Nc1cccc([N+](=O)[O-])c1 (configuration not stated) | > 100 µM (inactive) | > 100 µM (inactive) | > 100 µM (inactive) | > 100 µM (inactive) | > 100 µM (inactive) | > 100 µM (inactive) | > 100 µM (inactive) | > 100 µM (inactive) | > 100 µM (inactive)
O=C1CCCC/C1=C\c1ccc(Cl)c(Cl)c1 | 20.7 µM (inactive) | 17.1 µM (inactive) | 20.7 µM (inactive) | – | 18.8 µM (inactive) | 18.7 µM (inactive) | 20 µM (inactive) | 23.2 µM (inactive) | –
